# Test results as given in US6844182B2, “Mutants which produce a potentiator of bacillus pesticidal activity” (priority 1992, dated 2005).
# Where two headings read alike, the source gives them in different places.
# How the values were obtained:
# [1] = tested on: Spodoptera exigua; type: in vivo; design: key to Stunt Score: 4.0 = untreated control; 3.0 = 75% size of untreated control; 2.0 = 50% size of untreated control; 1.0 = 25% size of untreated control; 0.0 = no growth or size unchanged from start of experiment
# Protocol: Activity is monitored by a Spodoptera exigua micro-bioassay, and purity is determined by capillary electrophoresis. […] The trays containing the various samples are air dried. Two to four 2nd or early 3rd instar Spodoptera exigua are added to the wells containing the dried sample. The wells are sealed with mylar poked with holes and are incubated for 2-3 days at 30° C. Degree of stunting and percent mortality are then recorded. Typically, 5 replicate wells are run for each sample.
# [2] = Stability of Ia (retention of activity); type: physicochemical
# Protocol: Further, it is stable when subjected to direct sunlight for at least 10 hours. Ia is stable at a pH 2 for 3 days, but unstable at pH 12.
# [3] = Solubility of Ia; type: physicochemical
# From the text: The active compound is found to be water soluble but is not soluble in organic solvents. […] A DEPT experiment determined that there are three quaternary carbons (C), seven methines (CH), three methylenes (CH2) and no methyl groups (CH3). Using proton coupling experiments such as 1-D decoupling and COSY, one large spin system containing eight carbons is identified. In addition, a smaller spin system consisting of two carbons is present. A carbon proton correlation experiment (HMBC) enabled assignment of each proton resonance in the molecule to its attached carbon.
# [4] = tested on: Septoria nodorum; assay: Fungal growth inhibition assay, Septoria nodorum; type: cell-based
# Protocol: (§1) Mutants of the Bacillus thuringiensis subsp. kurstaki strain which produce the factor are identified using fungal agar plates of Septoria nodorum and Alternaria alternata.
# (§2) The two fungi are grown on PDA (potato dextrose agar) plates at 26° C. for 10-14 days until sufficient sporulation is obtained. Alternaria alternata is incubated in alternating UV light and darkness (12 hrs. each). The spores are removed from the plates and suspended in sterile water. Septoria nodorum spores are filtered through a sterile G1 filter. The Alternaria alternata spore concentration is adjusted to approximately 2×10^5 per ml and the Septoria nodorum spore concentration is adjusted to approximately 2×10^6 per ml using a Burker-Turk or Fuchs-Rosenthal counter. Samples of 1.5 ml of the spore suspension are then mixed with 1.5 ml of sterile 40% glycerol in water, frozen for 1 day at −20° C. and thereafter stored at −80° C. until use.
# (§3) Test plates for the factor are prepared by mixing at 46° C. a 1.5 ml spore sample (as described above) with 115 ml of antibiotic agar medium No. 2 (25.5 g per liter) comprising streptomycin at a final concentration of 100 μg per ml, and transferring the mixture to sterile plastic trays (Nunc No. 101875). After the agar has solidified, […] holes are punched into the agar (120 holes per tray).
# (§4) Samples of a culture are serially diluted in 100 μg of streptomycn per ml of sterile water and 10 μl of the diluted samples are dispensed into the trays prepared as described above. The trays are incubated at 26° C. for 2 days. Dilutions of the factor are also run as a positive control.
# (§5) The sensitivity of the fungal growth inhibition assay is in the range of 0.05 gram of the factor per liter (barely visible) and 0.1 gram of the factor per liter (clear zone) for both fungi.
# [5] = tested on: Alternaria alternata; assay: Fungal growth inhibition assay, Alternaria alternata; type: cell-based
# Protocol: as §1, §2, §3, §4, §5
# [6] = tested on: Phytophthora medicaginis; conditions: U.S. Pat. Nos. 4,877,738 and 4,878,936; cited from earlier work
compound,measurement,setting,value
NC(=O)NCC(NC(=O)C(O)C(O)C(N)C(O)CC(O)C(N)CO)C(N)=O (stereo not shown) [Ia],Stunt Score,"[1]; Ia + alone, Bt protein None",4.0
same,effect on activity of B.t. subsp. kurstaki and aizawai crystal delta-endotoxin pesticidal proteins toward Spodoptera exigua,[1]; regardless of the form of the pesticidal proteins,potentiate
same,stability upon autoclaving,[2]; autoclaving (>190° C.),loses all activity
same,stability upon boiling,[2]; boiling for 5 minutes,stable
same,time stable in direct sunlight,[2]; direct sunlight,at least 10 hours
same,stability to periodic acid or concentrated HCl,[2]; exposed to periodic acid or concentrated HCl,lose all activity
same,stability at pH 2,[2]; pH 2 for 3 days,stable
same,stability at pH 12,[2]; pH 12,unstable
same,solubility in organic solvents,[3]; organic solvents,not soluble
same,solubility in water,[3]; water,water soluble
same,effect on fungal growth,[4]; agar plates,inhibits growth
same,concentration giving barely visible inhibition (assay sensitivity),"[4]; barely visible, 26° C., 2 days",0.05 gram of the factor per liter
same,concentration giving clear zone (assay sensitivity),"[4]; clear zone, 26° C., 2 days",0.1 gram of the factor per liter
same,effect on fungal growth,[5]; agar plates,inhibits growth
same,concentration giving barely visible inhibition (assay sensitivity),"[5]; barely visible, 26° C., 2 days",0.05 gram of the factor per liter
same,concentration giving clear zone (assay sensitivity),"[5]; clear zone, 26° C., 2 days",0.1 gram of the factor per liter
NC(=O)NCC(NC(=O)C(O)C(O)C(N)C(O)CC(O)C(N)CO)C(N)=O (stereo not shown) [zwittermicin A],effect on growth of the plant pathogen Phytophthora medicaginis,[6],inhibits the growth
same,effect on infection of alfalfa,[6],reduces the infection
CryIA(c): Bacillus thuringiensis CryIA(c) delta-endotoxin protein purified from BIOBIT FC,Stunt Score,"[1]; Bt protein 3 μg/ml, Ia +",1.0 (1.0 = 25% size of untreated control)
same,Stunt Score,"[1]; Bt protein 15 μg/ml, Ia +",0.0
same,Stunt Score,"[1]; Bt protein 30 μg/ml, Ia −",4.0
same,concentration with Ia producing the same insect mortality/stunt score as protein alone,"[1]; full-length protein, equals 240 μg/ml of CryIA(c) alone",0.75 µg/mL
same,Stunt Score,"[1]; purified truncated Bt protein OD280 0.0006, Ia +",1.0 (1.0 = 25% size of untreated control)
same,Stunt Score,"[1]; purified truncated Bt protein OD280 0.0012, Ia +",1.0 (1.0 = 25% size of untreated control)
same,Stunt Score,"[1]; purified truncated Bt protein OD280 0.0025, Ia +",2.0 (2.0 = 50% size of untreated control)
same,Stunt Score,"[1]; purified truncated Bt protein OD280 0.005, Ia +",0.0
same,Stunt Score,"[1]; purified truncated Bt protein OD280 0.020, Ia +",0.0
same,OD280 in combination with Ia giving the same stunt score as protein alone,"[1]; truncated protein, equals OD280 of 0.075 tested alone",0.0006 OD280
